One series is described as follows: physchem. The conditions noted are these: 25 °C, water, thermodynamic from solid.
Series [1] deals with T1, wild-type Choristoneura fumiferana EcR (CfEcR-DEF) (Choristoneura fumiferana, UniProt O77255).
T1 sequence (O77255 219-541): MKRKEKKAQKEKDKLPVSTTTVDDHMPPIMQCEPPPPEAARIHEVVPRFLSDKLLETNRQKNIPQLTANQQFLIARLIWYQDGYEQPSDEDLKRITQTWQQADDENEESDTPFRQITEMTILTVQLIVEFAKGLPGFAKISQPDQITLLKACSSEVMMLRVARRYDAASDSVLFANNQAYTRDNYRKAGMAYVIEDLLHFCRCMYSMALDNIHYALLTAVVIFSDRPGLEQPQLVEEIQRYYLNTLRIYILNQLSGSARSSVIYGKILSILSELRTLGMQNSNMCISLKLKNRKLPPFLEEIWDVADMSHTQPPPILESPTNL
T1 sequence (P28702 299-449 partner): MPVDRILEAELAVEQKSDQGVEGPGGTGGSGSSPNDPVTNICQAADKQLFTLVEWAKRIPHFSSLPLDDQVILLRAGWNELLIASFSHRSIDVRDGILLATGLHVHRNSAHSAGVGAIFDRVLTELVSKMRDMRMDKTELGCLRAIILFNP
Description: Two-hybrid gene switch assay, wild-type CfEcR-DEF (GAL4-EcR / VP16-RXR-USP chimera, luciferase) in NIH3T3 cells.

A short description of series [2]: Caco II permeability assay. The conditions noted are these: human, Caco-2, pH 7.4.
Series [3] concerns D. melanogaster BII cell line (expresses the ecdysteroid receptor complex EcR-USP). Description: Drosophila melanogaster BII cell line bioassay (turbidometric; agonist and antagonist versions). The conditions noted are these: Drosophila melanogaster, read-out: EC50 (M), BII bioassay results.
For series [4] the following is noted: in human; cited from earlier work.
The nature of series [5]: Log D measurement (shake flask, pH 7.4 buffer / octanol). Format: physicochemical. The note with it: octanol/pH 7.4 buffer (shake flask), pH 7.4 buffer / water-saturated octanol, read-out: Experimental logD.
Description: (§1) Each shake flask was agitated for 60 minutes at room temperature, then allowed to stand for 1 hour at room temperature. […] Absorbance was compared to that of a reference standard at the same absorbance maximum for a 1-2% solution of the same steroid in CH3OH, allowing for up to 10 nM maxima shift due to solvent effect.
Series [6] is described as follows: Plasma protein binding assay (dialysis). The conditions noted are these: both sexes; human plasma vs PBS pH 7.4, ca. 24 hours at 37° C. In kind it is in vitro ADME.
Series [7] addresses T2, wild-type Aedes aegypti EcR (AaEcR-DEF) (Aedes aegypti, UniProt P49880).
T2 sequence (P49880 405-776 limits assumed): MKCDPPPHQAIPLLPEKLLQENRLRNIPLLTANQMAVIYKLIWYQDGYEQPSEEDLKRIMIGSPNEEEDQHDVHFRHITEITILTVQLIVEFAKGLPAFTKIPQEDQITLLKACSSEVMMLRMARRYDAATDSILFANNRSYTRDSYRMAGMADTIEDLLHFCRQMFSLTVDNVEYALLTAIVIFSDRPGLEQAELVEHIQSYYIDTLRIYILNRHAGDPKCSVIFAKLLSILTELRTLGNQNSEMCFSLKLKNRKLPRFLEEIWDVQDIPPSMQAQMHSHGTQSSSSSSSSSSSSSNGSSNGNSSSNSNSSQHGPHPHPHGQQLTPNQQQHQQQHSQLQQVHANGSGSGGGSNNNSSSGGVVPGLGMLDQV
Description: Two-hybrid gene switch assay, AaEcR-DEF in NIH3T3 cells. The conditions noted are these: for EC50: NIH3T3, Example One; for potency as activator of AaEcR: Example Two.

A further series addresses VgEcR/RXR (Drosophila melanogaster, UniProt P34021, E282G/G283S/G286V).
The subject of series [8] is Nephotettix cincticeps EcR (NcEcR-DEF). Briefly: Two-hybrid gene switch assay, NcEcR-DEF in NIH3T3 cells. The note with it: Example Two.
A short description of series [9]: Water solubility measurement (saturated solutions, 25° C., UV absorbance). The note with it: for solubility: 25 °C, thermodynamic from solid.
Description: as §1
Series [10] has as its target T3, wild-type Drosophila melanogaster EcR (DmEcR-DEF) (Drosophila melanogaster, UniProt P34021).
T3 sequence (P34021 342-878 limits assumed): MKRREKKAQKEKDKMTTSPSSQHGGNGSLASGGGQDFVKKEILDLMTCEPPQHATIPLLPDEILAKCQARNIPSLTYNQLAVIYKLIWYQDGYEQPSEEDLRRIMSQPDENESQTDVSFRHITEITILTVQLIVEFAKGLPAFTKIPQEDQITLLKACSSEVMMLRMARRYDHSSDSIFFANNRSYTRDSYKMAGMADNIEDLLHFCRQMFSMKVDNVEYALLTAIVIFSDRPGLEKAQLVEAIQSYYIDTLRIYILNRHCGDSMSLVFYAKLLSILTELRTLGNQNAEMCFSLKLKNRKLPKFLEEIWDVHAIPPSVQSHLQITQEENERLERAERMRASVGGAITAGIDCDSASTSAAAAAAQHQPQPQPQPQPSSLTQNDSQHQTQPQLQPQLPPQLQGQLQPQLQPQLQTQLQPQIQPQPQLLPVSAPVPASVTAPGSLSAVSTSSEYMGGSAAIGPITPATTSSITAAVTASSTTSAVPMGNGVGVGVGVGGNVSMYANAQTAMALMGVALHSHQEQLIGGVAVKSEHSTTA
Description: Two-hybrid gene switch assay, DmEcR-DEF in NIH3T3 cells. The conditions noted are these: EC50, DmEcR gene switch, NIH3T3, Example One.

Series [11] deals with EcRs (lepidopteran and non-lepidopteran). Description: Two-hybrid gene switch assays, statements across the set of ten EcRs in NIH3T3 cells. The note with it: for activity across the tested set of EcRs: FIGS. 13 and 14; for EC50: read-out: potency (EC50).
A further series concerns the target T4, Bombyx mori EcR (BmEcR) (Bombyx mori, UniProt P49881).
T4 sequence (P49881 352-589 limits assumed): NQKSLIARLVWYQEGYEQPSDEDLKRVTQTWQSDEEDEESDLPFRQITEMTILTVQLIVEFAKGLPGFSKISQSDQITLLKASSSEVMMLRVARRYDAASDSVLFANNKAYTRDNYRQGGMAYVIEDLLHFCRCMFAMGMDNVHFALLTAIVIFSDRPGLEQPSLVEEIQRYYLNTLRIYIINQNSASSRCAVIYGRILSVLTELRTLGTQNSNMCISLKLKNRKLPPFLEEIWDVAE
Briefly: Two-hybrid gene switch assay, BmEcR in NIH3T3 cells.

Series [12] concerns the target Bemisia argentifolii EcR (BaEcR-DEF) (Bemisia argentifolii (Bemisia tabaci biotype B / MEAM1), UniProt A0A6M3RDR8). Description: Two-hybrid gene switch assay, BaEcR-DEF in NIH3T3 cells.
The mark [13] stands for this setting: wt-CfEcR gene switch, NIH3T3, Example One.
Where [14] appears, read: EC50, VgEcR/RXR switch in 3T3 cells.

Converted amounts (≈) assume the structure as drawn. “And” between values parts separate entries of the source, which are not always exact repeats. Equal values may be shown once. Read-outs that look alike come from different tables or passages of the source.

VgEcR/RXR, sequence (P34021 whole entry E282G/G283S/G286V): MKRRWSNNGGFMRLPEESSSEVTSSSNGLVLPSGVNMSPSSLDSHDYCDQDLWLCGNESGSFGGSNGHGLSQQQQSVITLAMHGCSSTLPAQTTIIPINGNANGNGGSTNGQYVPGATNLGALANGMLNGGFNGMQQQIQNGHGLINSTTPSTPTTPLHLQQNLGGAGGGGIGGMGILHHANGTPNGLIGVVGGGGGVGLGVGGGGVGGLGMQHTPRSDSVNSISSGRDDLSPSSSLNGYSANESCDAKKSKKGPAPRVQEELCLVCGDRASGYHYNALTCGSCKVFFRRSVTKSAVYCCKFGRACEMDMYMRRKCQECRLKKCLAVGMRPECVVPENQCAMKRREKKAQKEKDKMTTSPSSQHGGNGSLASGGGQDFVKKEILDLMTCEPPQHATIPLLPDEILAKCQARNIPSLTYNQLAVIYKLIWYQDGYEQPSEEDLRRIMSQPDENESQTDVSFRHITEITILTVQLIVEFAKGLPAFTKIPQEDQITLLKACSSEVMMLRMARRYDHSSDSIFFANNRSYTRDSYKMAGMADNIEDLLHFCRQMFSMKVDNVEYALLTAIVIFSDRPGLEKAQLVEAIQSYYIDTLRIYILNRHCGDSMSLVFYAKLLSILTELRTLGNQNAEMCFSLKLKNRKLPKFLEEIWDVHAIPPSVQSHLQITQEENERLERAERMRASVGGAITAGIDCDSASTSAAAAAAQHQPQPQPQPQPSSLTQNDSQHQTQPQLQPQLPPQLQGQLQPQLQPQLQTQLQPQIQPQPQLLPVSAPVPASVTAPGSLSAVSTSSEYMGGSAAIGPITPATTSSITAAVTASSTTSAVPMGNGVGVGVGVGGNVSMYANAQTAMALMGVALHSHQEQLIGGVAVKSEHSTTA
VgEcR/RXR, sequence (P19793 whole entry, further chain): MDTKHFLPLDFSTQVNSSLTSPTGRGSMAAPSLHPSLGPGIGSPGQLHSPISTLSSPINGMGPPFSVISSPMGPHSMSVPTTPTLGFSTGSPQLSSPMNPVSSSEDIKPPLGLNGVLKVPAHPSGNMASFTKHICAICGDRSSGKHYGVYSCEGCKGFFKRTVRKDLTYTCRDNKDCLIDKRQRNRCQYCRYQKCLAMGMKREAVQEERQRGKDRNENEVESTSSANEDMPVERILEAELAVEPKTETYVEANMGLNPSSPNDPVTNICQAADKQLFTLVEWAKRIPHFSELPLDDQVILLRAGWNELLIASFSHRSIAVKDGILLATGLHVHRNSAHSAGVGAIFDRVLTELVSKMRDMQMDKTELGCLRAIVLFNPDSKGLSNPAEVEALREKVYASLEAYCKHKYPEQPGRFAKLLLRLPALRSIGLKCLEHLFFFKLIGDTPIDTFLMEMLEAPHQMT
Bemisia argentifolii EcR (BaEcR-DEF), sequence (P28702 298-449): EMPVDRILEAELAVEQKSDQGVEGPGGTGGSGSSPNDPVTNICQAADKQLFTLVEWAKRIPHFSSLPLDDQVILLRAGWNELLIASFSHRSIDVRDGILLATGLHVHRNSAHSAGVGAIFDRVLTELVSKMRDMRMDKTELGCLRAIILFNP
Bemisia argentifolii EcR (BaEcR-DEF), sequence (A0A6M3RDR8 entry or part of it): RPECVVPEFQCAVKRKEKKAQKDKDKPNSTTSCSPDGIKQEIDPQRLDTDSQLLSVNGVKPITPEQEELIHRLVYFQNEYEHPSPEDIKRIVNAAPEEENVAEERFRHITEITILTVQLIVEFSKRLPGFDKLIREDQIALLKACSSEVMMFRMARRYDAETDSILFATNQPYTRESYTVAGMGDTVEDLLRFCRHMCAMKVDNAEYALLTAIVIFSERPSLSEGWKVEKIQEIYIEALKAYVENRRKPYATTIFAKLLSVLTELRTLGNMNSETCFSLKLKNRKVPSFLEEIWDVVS
Description for physchem: as §1

In the series “physchem”, `CC(C)(O)CCC(O)C(C)(O)C1CCC2(O)C3=CC(=O)C4CC(O)C(O)CC4(C)C3CCC12C` (centres unmarked) [20E, 20-hydroxyecdysone] came in with a solubility of 6700 µg/mL (≈ 13900 µM). Also, the EC50 in series [1] was > 33000 nM. Besides, the “activity in wt-CfEcR assay” value in series [1] (Example One) was “essentially inactive”. For the same compound, the “response toward CfEcR” value in [1] (Example Two) is given as “virtually no response”. In addition, in series [2], the Papp A→B at 120 min was 0.11 ×10⁻⁶ cm/s, the Papp B→A at 120 min was 0.39 ×10⁻⁶ cm/s and the efflux ratio at 120 min was 3.5. The EC50 in series [3] is 7.6e-09 M. Further, in series [4], the estimated half-life is 9 h. Further, in [5], the logD turned out to be 0.01. The fraction unbound in series [6] is 0.908.

As to `CC(C)CC[C@@H](O)[C@](C)(O)[C@H]1CC[C@@]2(O)C3=CC(=O)[C@@H]4C[C@@H](O)[C@@H](O)C[C@]4(C)[C@H]3CC[C@]12C` [PoA, ponasterone A], the EC50 worked out at 1.1 nM in [7] (EC50, AaEcR gene switch); 190 nM in [1]; 641 nM on VgEcR/RXR (setting [14]); 641 nM at VgEcR/RXR (EC50, VgEcR/RXR system); 0.3 nM in series [8]; 2.6e-10 M in [3]. For the same compound, the EC50 was ~66 nM in [10]; 0.3 to 2 nM in series [11] (Nc, Aa, and Ama EcRs); 110 nM on Bombyx mori EcR (BmEcR). In addition, the “potency as activator of AaEcR” value in series [7] was “single digit nM”. Moreover, the fold induction at 1 µM in series [7] (NIH3T3, read-out: FI (fold induction)) was determined as 166. Further, the “RLUs (absolute expression of the reporter gene)” value in series [7] ([AaEcR]) is listed as ~1046. For the same compound, the “RMFI (relative maximum fold induction, relative to diacylhydrazine 30)” value in [1] (setting [13]) is ~0.18 and ~0.2. Besides, the RMFI on VgEcR/RXR (VgEcR/RXR system) was found to be 1.5; in [8], 1; on Bombyx mori EcR (BmEcR) (BmEcR, Example Two) it was 0.98. Moreover, the Papp A→B at 120 min in series [2] was 2.26 ×10⁻⁶ cm/s. For the same compound, the Papp B→A at 120 min in series [2] was 13.9 ×10⁻⁶ cm/s. For the same compound, in [2], the efflux ratio at 120 min came out at 6.2. Besides, in series [9], the solubility worked out at 180 µg/mL (≈ 387 µM). The logD in series [5] amounted to 1.95. Besides, in [11], the “activity across the tested set of EcRs” value was “active”. Besides, the “potency” value in series [11] (all EcRs tested) is reported as “submicromolar potency”. The compound further gave a fraction unbound in series [6] of 0.426.

For the compound `CO[C@H](CCC(C)C)[C@](C)(O)[C@H]1CC[C@@]2(O)C3=CC(=O)[C@@H]4C[C@@H](O)[C@@H](O)C[C@]4(C)[C@H]3CC[C@]12C` [compound 18, ponasterone A, 22-methyl ether], the EC50 was 0.38 nM in series [7] (EC50, AaEcR gene switch); 553 nM at VgEcR/RXR (setting [14]); 533 nM on VgEcR/RXR (EC50, VgEcR/RXR system); 2.2e-08 M in [3]; 66 nM and ~66 nM in series [10]. Further, the “RMFI (relative maximum fold induction, relative to diacylhydrazine 30)” value in [1] (setting [13]) is on record as ~0.6. Further, the RMFI on VgEcR/RXR (VgEcR/RXR system) was 1.5.

As for `CCc1c(OC)cccc1C(=O)NN(C(=O)c1cc(C)cc(C)c1)C(C)(C)C` [diacylhydrazine 30], the EC50 in [12] was 6000 nM; in series [11] (lepidopteran receptors) it was 3 to 20 nM. Also, in series [7], the “potency as activator of AaEcR” value is recorded as “single digit nM”. Also, in [1] (NIH3T3, 48 h, read-out: reference FI (1 microM)), the fold induction at 1 µM stood at 806. In series [9], this compound gave a solubility of 6.2 µg/mL (≈ 16.2 µM). The logD in series [5] stood at 3.4. Besides, at Bombyx mori EcR (BmEcR) (BmEcR, Example Two, background FI=3), the “diacylhydrazine reference FI” value is on record as 1776.

As to `CC(C)CC[C@@H](O)[C@](C)(O)[C@H]1CC[C@@]2(O)C3=CC(=O)[C@]4(O)C[C@@H](O)[C@@H](O)C[C@]4(C)[C@H]3[C@H](O)C[C@]12C` [muristerone A], the EC50 was determined as 9 nM in [7] (AaEcR gene switch), 7400 nM in series [1] (setting [13]), 851 nM on VgEcR/RXR (VgEcR/RXR switch in 3T3 cells) and 851 nM on VgEcR/RXR (VgEcR/RXR system). For the same compound, the RMFI on VgEcR/RXR (VgEcR/RXR system) is reported as 1.3. Besides, the Experimental aqueous solubility in series [9] (25° C.) was > 2900 µg/mL. Also, the “activity across the tested set of EcRs” value in series [11] is “active”.

The values above are taken from patent publication US8536354B2, “Steroidal ligands and their use in gene switch modulation” (Intrexon Corporation, priority 2008, dated 2013).
